Results reported in the NIST ThermoML archive (doi:10.1016/j.fluid.2018.10.024).

Key:
[1] = xn = mol fraction of the nth substance listed; details: 101 kPa, Liquid; for viscosity: Capillary tube (Ostwald / Ubbelohde) method; for mass density: Vibrating tube method
[2] = refractive index (Na D-line) (dimensionless); xn = mol fraction of the nth substance listed; details: 101 kPa, Liquid, Standard Abbe refractometry

CC(C)=O [acetone] + CO
Details | mass density, [1] [kg/m3] | refractive index, [2] | viscosity, [1] [mPa·s]
298.15 K, x2 = 0 | 784.41 | 1.3558 | 0.3034
298.15 K, x2 = 0.1036 | 786.21 | 1.3539 | 0.3003
298.15 K, x2 = 0.2043 | 787.49 | 1.3521 | 0.3006
298.15 K, x2 = 0.302 | 788.57 | 1.3502 | 0.3059
298.15 K, x2 = 0.4013 | 789.53 | 1.3483 | 0.3143
298.15 K, x2 = 0.5004 | 790.3 | 1.3458 | 0.3299
298.15 K, x2 = 0.6006 | 790.81 | 1.3426 | 0.3533
298.15 K, x2 = 0.6969 | 790.98 | 1.3389 | 0.3852
298.15 K, x2 = 0.802 | 790.73 | 1.3352 | 0.4316
298.15 K, x2 = 0.8965 | 789.83 | 1.3315 | 0.4833
303.15 K, x2 = 0 | 778.66 | 1.3534 | 0.2966
303.15 K, x2 = 0.1036 | 780.47 | 1.3513 | 0.295
303.15 K, x2 = 0.2043 | 781.81 | 1.3497 | 0.2939
303.15 K, x2 = 0.302 | 782.95 | 1.3482 | 0.2987
303.15 K, x2 = 0.4013 | 784 | 1.3464 | 0.3073
303.15 K, x2 = 0.5004 | 784.89 | 1.3439 | 0.3188
303.15 K, x2 = 0.6006 | 785.55 | 1.3407 | 0.34
303.15 K, x2 = 0.6969 | 785.85 | 1.3369 | 0.3663
303.15 K, x2 = 0.802 | 785.67 | 1.3328 | 0.4051
303.15 K, x2 = 0.8965 | 784.85 | 1.3291 | 0.4472
308.15 K, x2 = 0 | 773.08 | 1.3509 | 0.2831
308.15 K, x2 = 0.1036 | 774.93 | 1.3493 | 0.2807
308.15 K, x2 = 0.2043 | 776.27 | 1.3481 | 0.2803
308.15 K, x2 = 0.302 | 777.4 | 1.3465 | 0.2844
308.15 K, x2 = 0.4013 | 778.45 | 1.3444 | 0.2945
308.15 K, x2 = 0.5004 | 779.36 | 1.3419 | 0.3103
308.15 K, x2 = 0.6006 | 780.05 | 1.3385 | 0.3255
308.15 K, x2 = 0.6969 | 780.38 | 1.3349 | 0.3531
308.15 K, x2 = 0.802 | 780.24 | 1.3309 | 0.3857
308.15 K, x2 = 0.8965 | 779.53 | 1.3269 | 0.4278
313.15 K, x2 = 0 | 766.95 | 1.349 | 0.2689
313.15 K, x2 = 0.1036 | 768.83 | 1.3469 | 0.2647
313.15 K, x2 = 0.2043 | 770.26 | 1.3457 | 0.2657
313.15 K, x2 = 0.302 | 771.49 | 1.3435 | 0.2704
313.15 K, x2 = 0.4013 | 772.65 | 1.3415 | 0.2769
313.15 K, x2 = 0.5004 | 773.67 | 1.3392 | 0.2881
313.15 K, x2 = 0.6006 | 774.49 | 1.3362 | 0.3057
313.15 K, x2 = 0.6969 | 775.01 | 1.3329 | 0.3316
313.15 K, x2 = 0.802 | 775.12 | 1.3289 | 0.3619
313.15 K, x2 = 0.8965 | 774.65 | 1.3253 | 0.3989
318.15 K, x2 = 0 | 761.26 | 1.3449 | 0.2511
318.15 K, x2 = 0.1036 | 763.15 | 1.3432 | 0.2478
318.15 K, x2 = 0.2043 | 764.64 | 1.3414 | 0.2494
318.15 K, x2 = 0.302 | 765.92 | 1.3397 | 0.2526
318.15 K, x2 = 0.4013 | 767.11 | 1.3381 | 0.2601
318.15 K, x2 = 0.5004 | 768.17 | 1.3361 | 0.2692
318.15 K, x2 = 0.6006 | 769.04 | 1.3334 | 0.2903
318.15 K, x2 = 0.6969 | 769.62 | 1.3303 | 0.3096
318.15 K, x2 = 0.802 | 769.88 | 1.3262 | 0.3377
318.15 K, x2 = 0.8965 | 769.53 | 1.3221 | 0.375
